Experimental data from article PMC9259545, “Impact of poly-arginine peptides R18D and R18 on alteplase and tenecteplase thrombolysis in vitro, and neuroprotective stability to proteolysis” (Journal of Thrombosis and Thrombolysis, 2022).
Non-standard residues stand in square brackets, D forms with d. Residues, ends and D or L forms follow the SMILES beside them.

How the values were obtained:
plasmin = settings: cited from earlier work
Excerpt: Given the potential future application of the R18D, R18 and NA-1 peptides as ischaemic stroke neurotherapeutics, it is important to establish if they interfere with current and future standard of care treatments, namely alteplase (tPA; recombinant tissue plasminogen activator) and tenecteplase (TNK; a modified version of tPA) thrombolysis, which are routinely administered prior to thrombectomy. […] NA-1 is also degraded by plasmin [8]. Together, these findings confirm that peptides synthesised with D-enantiomer amino acids such as R18D, unlike peptides synthesised with L-enantiomer amino acids are highly resistant to proteolytic degradation and are likely to retain their neuroprotective efficacy ...

[1] = in the order; 8 (NA-1), unpublished data (R18D); cited from earlier work
Excerpt: It is important to mention that the results obtained in this study are likely to overestimate any negative effects of R18D, R18 and NA-1 on tPA/TNK lag time and thrombolysis compared with what would occur clinically for several reasons. Firstly, positively charged peptides administered directly into the circulation would have a larger pool of negatively charged plasma proteins such as albumin to bind, and thus reduce any inhibitory electrostatic effects of the peptides on lag time and thrombolysis. In addition, the in vitro thrombolysis assay used in this study was performed in 27.5% plasma wh ...

trypsin (TrypLE Express) = trypsin (TrypLE Express) (Fusarium oxysporum, UniProt P35049)
Chain of trypsin (TrypLE Express) (P35049 25-248): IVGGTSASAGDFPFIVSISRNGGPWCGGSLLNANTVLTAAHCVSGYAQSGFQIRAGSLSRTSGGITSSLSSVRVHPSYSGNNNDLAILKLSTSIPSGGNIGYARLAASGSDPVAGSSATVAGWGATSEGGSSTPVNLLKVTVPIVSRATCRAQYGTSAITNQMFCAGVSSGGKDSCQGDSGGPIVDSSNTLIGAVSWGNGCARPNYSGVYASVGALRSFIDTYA
Experimental: Rat primary cortical cultures were established from embryonic day 18–19 Sprague–Dawley rats (Animal Resources Centre, WA, Australia). Briefly, cortical tissue was dissociated in 2 mL Hanks balanced salt solution (HBBS; Life Technologies, Australia) supplemented with 1.3 mM L-cysteine, 10 U/mL papain (Sigma-Aldrich, Australia) and 50 U/mL DNase (Sigma-Aldrich) by trituration with a fire-polished pipette. Dissociated neurons were transferred to a 15-mL tube containing 13 mL of cold Dulbecco’s modified Eagle’s medium (DMEM; Life Technologies)/10% horse serum (Life Technologies) and centrifuged for 4 min at 300×g. Neurons were gently resuspended in 1.5 mL of cold Neurobasal (NB; Life Technologies)/2% B27 supplement (B27; Life Technologies) and the neuronal cell concentration adjusted to 50,000 neurons/70 μL and 70 μL inoculated into each well of a 96-well microtiter plate (Nunc, USA) pre-treated wells. Pre-treated wells were coated with 50 μL of poly-D-lysine (50 μg/mL; 70–150 K; Sigma-Aldrich) for 2–3 h at room temperature before being replaced with 50 μL of NB/B27, 4% fetal bovine serum (Life Technologies), 1% horse serum, 62.5 μM glutamic acid, 25 μM 2-mercaptoethanol, 30 μg/mL penicillin and 50 μg/mL streptomycin and placed in a CO2 incubator (5% CO2, 95% air balance, 98% humidity, 37 °C) prior to seeding with neurons. Neuronal cultures were maintained in CO2 incubator. On day in vitro four, 60 µL fresh NB/B27 containing the mitotic inhibitor cytosine arabinofuranoside (final concentration 0.15 μM; Sigma-Aldrich) was added and neuronal culture were used on day in vitro 11 to 13.
As an alternative to trypsin, TrypLE Express (Thermo Fischer Scientific, Australia) a synthetic serine protease with trypsin-like activity was used. […] Hereafter, TrypLE Express is referred to as trypsin.
Trypsin solution was added to an equal volume of MEM/2% B27 (T:MEM/B27). […] Following the incubation, 50 µL of the T:MEM/B27 or HBSS:MEM/B27 peptide solution was used to treat neuronal culture as described below for the glutamic acid excitotoxicity model. […]

tPA = target: T1, tPA (Homo sapiens, UniProt P00750); test: Neuroprotective proteolytic stability after pre-incubation with tPA (glutamic acid excitotoxicity model, MTS); assay type: in vitro ADME; settings: 1 or 2 h or overnight (22-24 h)
T1 construct: purchased Boehringer Ingelheim, Germany 10 mg vial
T1 sequence (P00750 36-562): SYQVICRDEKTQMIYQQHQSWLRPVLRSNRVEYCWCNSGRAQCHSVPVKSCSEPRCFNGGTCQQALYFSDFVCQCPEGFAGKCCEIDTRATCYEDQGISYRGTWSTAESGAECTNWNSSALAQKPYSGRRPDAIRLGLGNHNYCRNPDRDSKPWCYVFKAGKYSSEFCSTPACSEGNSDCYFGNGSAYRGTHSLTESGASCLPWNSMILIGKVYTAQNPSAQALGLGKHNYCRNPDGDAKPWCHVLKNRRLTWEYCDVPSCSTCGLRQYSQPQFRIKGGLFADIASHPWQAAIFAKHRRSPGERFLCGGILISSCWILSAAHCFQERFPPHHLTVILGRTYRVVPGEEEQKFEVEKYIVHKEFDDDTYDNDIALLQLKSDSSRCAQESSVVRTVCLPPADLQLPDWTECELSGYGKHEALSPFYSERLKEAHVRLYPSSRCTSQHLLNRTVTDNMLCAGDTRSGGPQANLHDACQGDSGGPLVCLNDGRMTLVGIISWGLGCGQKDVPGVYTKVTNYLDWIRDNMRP
Experimental: Neuronal cultures were maintained in CO2 incubator.
tPA (1000 µg/mL) or TNK (5000 µg/mL) resuspended in water (Baxter) were used to prepare 10 µg/mL (170 nM; note this is 34 times the concentration used in thrombolysis assay) stocks in MEM/2% B27 supplement (MEM/B27).
All data are presented as mean ± standard deviation (SD).

N=C(N)NCCC[C@@H](N)C(=O)N[C@H](CCCNC(=N)N)C(=O)N[C@H](CCCNC(=N)N)C(=O)N[C@H](CCCNC(=N)N)C(=O)N[C@H](CCCNC(=N)N)C(=O)N[C@H](CCCNC(=N)N)C(=O)N[C@H](CCCNC(=N)N)C(=O)N[C@H](CCCNC(=N)N)C(=O)N[C@H](CCCNC(=N)N)C(=O)N[C@H](CCCNC(=N)N)C(=O)N[C@H](CCCNC(=N)N)C(=O)N[C@H](CCCNC(=N)N)C(=O)N[C@H](CCCNC(=N)N)C(=O)N[C@H](CCCNC(=N)N)C(=O)N[C@H](CCCNC(=N)N)C(=O)N[C@H](CCCNC(=N)N)C(=O)N[C@H](CCCNC(=N)N)C(=O)N[C@H](CCCNC(=N)N)C(=O)O [R18D] (H-[dR][dR][dR][dR][dR][dR][dR][dR][dR][dR][dR][dR][dR][dR][dR][dR][dR][dR]-OH)
Neuroprotective properties in the glutamic acid excitotoxicity injury model when pre-incubated with plasmin (plasmin): retains its neuroprotective properties
Sensitivity to proteolytic degradation by plasmin (plasmin): not
In vivo peak plasma concentration [1]: 1 to 5 µM
Plasma half-life [1]: 5 to 15 min
Resistance to degradation by trypsin (trypsin (TrypLE Express)): resistant to degradation by trypsin
High-level neuroprotective efficacy after incubation with trypsin (trypsin (TrypLE Express); peptide 2 µM in 50% TrypLE Express : MEM/B27, 1 or 2 h or overnight (22-24 h), 37 °C CO2 incubator, then rat cortical neurons, glutamic acid 100 µM 5 min, MTS viability at 20-24 h, N = 4-8): displayed a high-level neuroprotective efficacy
Resistance to degradation by tPA (tPA; inferred from retained neuroprotection, peptide 2 µM, tPA 170 nM): resistant to degradation
Neuroprotective efficacy after incubation with tPA (tPA; peptide 2 µM in MEM/B27 with tPA 10 µg/mL (170 nM), 37 °C CO2 incubator, then rat cortical neurons, glutamic acid 100 µM 5 min, MTS viability at 20-24 h, N = 4-8): a similar and a high level of neuroprotective efficacy
